Assay results published in patent publication US20260217717A1, “CDK2 INHIBITORS” (BLUEPRINT MEDICINES CORPORATION, priority 2023, published 2026).

How the values were obtained:
CDK2/Cyclin E = molecular target: T1, CDK2/Cyclin E (Homo sapiens, UniProt P24941); assay: CDK2/Cyclin E enzymatic phosphorylation assay (Caliper mobility shift); type: biochemical; conditions: read-out: Enzyme CDK2/cyclin E IC50; note: 1.0 mM ATP or ATP Km
T1 construct: purchased Eurofins 14-475
Method: (§1) Reactions proceeded until between 10% to 20% total peptides were phosphorylated at room temperature (25° C.) and were terminated with 35 mM 2,2′,2″,2′″-(ethane-1,2-diyldinitrilo)tetraacetic acid (EDTA). Product was detected using the Caliper mobility shift detection method where the phosphorylated peptide (product) and substrate were electrophoretically separated and measured. Percent activity was plotted against log concentration of compound and points to generate an apparent IC50.

CDK1/Cyclin B1 = molecular target: T2, CDK1/Cyclin B1 (Homo sapiens, UniProt P06493); assay: CDK1/Cyclin B1 enzymatic phosphorylation assay (Caliper mobility shift); type: biochemical; conditions: read-out: Enzyme CDK1/cyclin B1 IC50
T2 construct: GST; purchased BPS 40454
T2 sequence (P06493 whole entry): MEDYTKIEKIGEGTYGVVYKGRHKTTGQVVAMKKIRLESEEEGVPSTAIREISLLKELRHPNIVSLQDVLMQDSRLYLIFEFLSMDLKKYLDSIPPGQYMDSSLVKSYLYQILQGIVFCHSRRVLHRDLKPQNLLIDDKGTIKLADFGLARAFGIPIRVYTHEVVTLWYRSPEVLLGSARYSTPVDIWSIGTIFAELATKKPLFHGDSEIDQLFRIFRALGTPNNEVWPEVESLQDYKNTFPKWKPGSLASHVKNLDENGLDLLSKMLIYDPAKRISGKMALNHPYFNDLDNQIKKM
T2 sequence (P14635 whole entry partner): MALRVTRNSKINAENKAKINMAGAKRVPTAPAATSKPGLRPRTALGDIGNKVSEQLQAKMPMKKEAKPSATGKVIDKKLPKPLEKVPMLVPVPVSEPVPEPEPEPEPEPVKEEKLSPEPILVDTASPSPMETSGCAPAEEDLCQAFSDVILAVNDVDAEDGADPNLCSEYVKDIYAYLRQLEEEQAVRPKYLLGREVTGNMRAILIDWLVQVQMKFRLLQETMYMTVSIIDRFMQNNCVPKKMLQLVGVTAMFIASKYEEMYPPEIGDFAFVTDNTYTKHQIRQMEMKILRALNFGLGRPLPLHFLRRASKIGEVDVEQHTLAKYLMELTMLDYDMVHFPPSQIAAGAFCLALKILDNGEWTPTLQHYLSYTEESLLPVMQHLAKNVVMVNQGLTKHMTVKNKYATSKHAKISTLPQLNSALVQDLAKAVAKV
Method: as §1

Row | SMILES | IC50 (CDK2/Cyclin E) [nM] | IC50 (CDK1/Cyclin B1) [nM]
1 | c1nc2cnn(CC3CCOCC3)c2nc1Nc1cc(C2COC2)[nH]n1 [Example 35, N-(5-(oxetan-3-yl)-1H-pyrazol-3-yl)-1-((tetrahydro-2H-pyran-4-yl)methyl)-1H-pyrazolo[3,4-b]pyrazin-6-amine] | 11.3 | 877
2 | Cc1cc(Nc2cnc3cnn([C@@H](C)C4CCOCC4)c3n2)n[nH]1 [Example 54, (S)-N-(5-methyl-1H-pyrazol-3-yl)-1-(1-(tetrahydro-2H-pyran-4-yl)ethyl)-1H-pyrazolo[3,4-b]pyrazin-6-amine] | 26 | 3670
3 | Fc1ccc(Cn2ncc3ncc(Nc4cc(C5COC5)[nH]n4)nc32)cn1 [Example 48, 1-((6-fluoropyridin-3-yl)methyl)-N-(5-(oxetan-3-yl)-1H-pyrazol-3-yl)-1H-pyrazolo[3,4-b]pyrazin-6-amine] | 13.1 | 1840
4 | C[C@H](c1cc(Nc2cnc3cnn(CC4CCOCC4)c3n2)n[nH]1)C(F)F (single isomer, unassigned) [Example 20] | 7.4 | 1010
5 | Cc1cc(Nc2cnc3cnn(C[C@H]4CCCOC4)c3n2)n[nH]1 [Example 5, (R)-N-(5-methyl-1H-pyrazol-3-yl)-1-((tetrahydro-2H-pyran-3-yl)methyl)-1H-pyrazolo[3,4-b]pyrazin-6-amine] | 57.6 | 5230

The next compounds have a lower IC50 (CDK2/Cyclin E) than those just listed; values first:

Row | IC50 (CDK2/Cyclin E) [nM] | IC50 (CDK1/Cyclin B1) [nM] | SMILES
6 | 3.8 | 1270 | CC(C)c1cc(Nc2cnc3cnn(C[C@H]4CCOC4)c3n2)n[nH]1 (single isomer, unassigned) [Example 11, (R)-N-(5-isopropyl-1H-pyrazol-3-yl)-1-((tetrahydrofuran-3-yl)methyl)-1H-pyrazolo[3,4-b]pyrazin-6-amine or (S)-N-(5-isopropyl-1H-pyrazol-3-yl)-1-((tetrahydrofuran-3-yl)methyl)-1H-pyrazolo[3,4-b]pyrazin-6-amine]
7 | 3.7 | 388 | Cc1nn(CC2CCOCC2)c2nc(Nc3cc(C(C)C)[nH]n3)cnc12 [Example 6, N-(5-isopropyl-1H-pyrazol-3-yl)-3-methyl-1-((tetrahydro-2H-pyran-4-yl)methyl)-1H-pyrazolo[3,4-b]pyrazin-6-amine]
8 | 3.5 | 237 | CC(=O)N1CCC(n2ncc3ncc(Nc4cc(C(C)C)[nH]n4)nc32)CC1 [Example 58, 1-(4-(6-((5-isopropyl-1H-pyrazol-3-yl)amino)-1H-pyrazolo[3,4-b]pyrazin-1-yl)piperidin-1-yl)ethan-1-one]
9 | 2.8 | 644 | Fc1ncccc1Cn1ncc2ncc(Nc3cc(C4COC4)[nH]n3)nc21 [Example 49, 1-((2-fluoropyridin-3-yl)methyl)-N-(5-(oxetan-3-yl)-1H-pyrazol-3-yl)-1H-pyrazolo[3,4-b]pyrazin-6-amine]
